Data as given in PubChem BioAssay AID1963848 (Molecular Pharmacology Branch, DTP, NCI, 2024).

Tested on: 379773-124-R-J2-PDC spheroid viability
Assay: Anticancer human tumor 379773-124-R-J2-PDC patient-derived endometrial carcinoma cell line growth inhibition [POLQ]
Conditions: spheroids with HUVEC and MSC; for IC50: curve of first compound; for viability, T/C: stronger effect = lower value
How it was run: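 Complex spheroid viability model combining PDC tumour cells with endothelial (HUVEC) and MSC stromal cells. Novobiocin, ART-558 or RP6685 were tested singly and in combination with standard and investigational anticancer drugs. Each was titrated in half-log steps from near clinical Cmax, or from 10 microM where Cmax was unknown.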

[1] = second compound 0.0316 µM, first compound 0.0316 µM
[2] = second compound 0.0316 µM, first compound 0.1 µM
[3] = second compound 0.0316 µM, first compound 0.316 µM
[4] = second compound 0.0316 µM, first compound 1 µM
[5] = second compound 0.0316 µM, first compound 3.16 µM
[6] = second compound 0.0316 µM, first compound 10 µM
[7] = second compound 0.1 µM, first compound 0.0316 µM
[8] = second compound 0.1 µM, first compound 0.1 µM
[9] = second compound 0.1 µM, first compound 0.316 µM
[10] = second compound 0.1 µM, first compound 1 µM
[11] = second compound 0.1 µM, first compound 3.16 µM
[12] = second compound 0.1 µM, first compound 10 µM
[13] = second compound 0.316 µM, first compound 0.0316 µM
[14] = second compound 0.316 µM, first compound 0.1 µM
[15] = second compound 0.316 µM, first compound 0.316 µM
[16] = second compound 0.316 µM, first compound 1 µM
[17] = second compound 0.316 µM, first compound 3.16 µM
[18] = second compound 0.316 µM, first compound 10 µM
[19] = second compound 1 µM, first compound 0.0316 µM
[20] = second compound 1 µM, first compound 0.1 µM
[21] = second compound 1 µM, first compound 0.316 µM
[22] = second compound 1 µM, first compound 1 µM
[23] = second compound 1 µM, first compound 3.16 µM
[24] = second compound 1 µM, first compound 10 µM
[25] = second compound 3.16 µM, first compound 0.0316 µM
[26] = second compound 3.16 µM, first compound 0.1 µM
[27] = second compound 3.16 µM, first compound 0.316 µM
[28] = second compound 3.16 µM, first compound 1 µM
[29] = second compound 3.16 µM, first compound 3.16 µM
[30] = second compound 3.16 µM, first compound 10 µM
[31] = second compound 10 µM, first compound 0.0316 µM
[32] = second compound 10 µM, first compound 0.1 µM
[33] = second compound 10 µM, first compound 0.316 µM
[34] = second compound 10 µM, first compound 1 µM
[35] = second compound 10 µM, first compound 3.16 µM
[36] = second compound 10 µM, first compound 10 µM
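Also: spheroids exposed to drugs for seven days before readout.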
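For viability, T/C in this document: percent viability relative to DMSO vehicle control taken as 100%.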

CC1COCCN1c1cc(-c2ccnn2C)c2ccnc(-c3ccn[nH]3)c2n1 (centres undefined) + COC1C(OC(N)=O)C(O)C(Oc2ccc3c(O)c(NC(=O)c4ccc(O)c(CC=C(C)C)c4)c(=O)oc3c2C)OC1(C)C
IC50 (second compound 0.0316 µM): 76.8 nM
IC50 (second compound 0.1 µM): 81.1 nM
IC50 (second compound 0.316 µM): 104 nM
IC50 (second compound 1 µM): 73.9 nM
IC50 (second compound 3.16 µM): 111 nM
IC50 (second compound 10 µM): 82.7 nM
viability, T/C [1]: 75.7%
viability, T/C [2]: 42.4%
viability, T/C [3]: 10.5%
viability, T/C [4]: 9.05%
viability, T/C [5]: 8.71%
viability, T/C [6]: 5.49%
viability, T/C [7]: 85.5%
viability, T/C [8]: 42.1%
viability, T/C [9]: 9.78%
viability, T/C [10]: 8.09%
viability, T/C [11]: 9.06%
viability, T/C [12]: 6.55%
viability, T/C [13]: 82.7%
viability, T/C [14]: 51.4%
viability, T/C [15]: 11.2%
viability, T/C [16]: 7.55%
viability, T/C [17]: 8.92%
viability, T/C [18]: 7.56%
viability, T/C [19]: 83.3%
viability, T/C [20]: 38.1%
viability, T/C [21]: 9.64%
viability, T/C [22]: 8.17%
viability, T/C [23]: 9.6%
viability, T/C [24]: 5.36%
viability, T/C [25]: 64.1%
viability, T/C [26]: 54%
viability, T/C [27]: 11.1%
viability, T/C [28]: 7.3%
viability, T/C [29]: 8.49%
viability, T/C [30]: 6.71%
viability, T/C [31]: 86.9%
viability, T/C [32]: 42.7%
viability, T/C [33]: 10.4%
viability, T/C [34]: 7.51%
viability, T/C [35]: 9.13%
viability, T/C [36]: 5.64%

CC1COCCN1c1cc(C2(S(C)(=N)=O)CC2)nc(-c2ccnc3[nH]ccc23)n1 (centres undefined) + COC1C(OC(N)=O)C(O)C(Oc2ccc3c(O)c(NC(=O)c4ccc(O)c(CC=C(C)C)c4)c(=O)oc3c2C)OC1(C)C
IC50 (second compound 0.0316 µM): 1910 nM
IC50 (second compound 0.1 µM): 1850 nM
IC50 (second compound 0.316 µM): 1780 nM
IC50 (second compound 1 µM): 1930 nM
IC50 (second compound 3.16 µM): 1790 nM
IC50 (second compound 10 µM): 1670 nM
viability, T/C [1]: 100%
viability, T/C [2]: 86.1%
viability, T/C [3]: 78.5%
viability, T/C [4]: 78.2%
viability, T/C [5]: 28.9%
viability, T/C [6]: 5.71%
viability, T/C [7]: 92%
viability, T/C [8]: 85.2%
viability, T/C [9]: 91.3%
viability, T/C [10]: 79.9%
viability, T/C [11]: 24%
viability, T/C [12]: 5.69%
viability, T/C [13]: 91.1%
viability, T/C [14]: 82.1%
viability, T/C [15]: 77.1%
viability, T/C [16]: 75.7%
viability, T/C [17]: 24.9%
viability, T/C [18]: 7.92%
viability, T/C [19]: 87%
viability, T/C [20]: 82.1%
viability, T/C [21]: 87%
viability, T/C [22]: 79%
viability, T/C [23]: 28%
viability, T/C [24]: 7.44%
viability, T/C [25]: 78%
viability, T/C [26]: 88.2%
viability, T/C [27]: 81.5%
viability, T/C [28]: 67.5%
viability, T/C [29]: 32.6%
viability, T/C [30]: 8.77%
viability, T/C [31]: 85.6%
viability, T/C [32]: 74.4%
viability, T/C [33]: 79.8%
viability, T/C [34]: 61.7%
viability, T/C [35]: 34.5%
viability, T/C [36]: 5.53%
